Reference: patent US8835428B2, “Diacylglycerol acyltransferase inhibitors” (Piramal Enterprises Limited, priority 2008, dated 2014)

The compounds below were run against T1, hDGAT1 (Homo sapiens, UniProt O75907) (assay: In-vitro DGAT1 assay (hDGAT1 microsomes from Sf9 cells, 14C oleoyl CoA, triglyceride formation)). Conditions: At 10 μM.
T1 construct: host or cells: Sf9 insect cells (baculovirus); microsomal preparation
T1 sequence (O75907 1-488): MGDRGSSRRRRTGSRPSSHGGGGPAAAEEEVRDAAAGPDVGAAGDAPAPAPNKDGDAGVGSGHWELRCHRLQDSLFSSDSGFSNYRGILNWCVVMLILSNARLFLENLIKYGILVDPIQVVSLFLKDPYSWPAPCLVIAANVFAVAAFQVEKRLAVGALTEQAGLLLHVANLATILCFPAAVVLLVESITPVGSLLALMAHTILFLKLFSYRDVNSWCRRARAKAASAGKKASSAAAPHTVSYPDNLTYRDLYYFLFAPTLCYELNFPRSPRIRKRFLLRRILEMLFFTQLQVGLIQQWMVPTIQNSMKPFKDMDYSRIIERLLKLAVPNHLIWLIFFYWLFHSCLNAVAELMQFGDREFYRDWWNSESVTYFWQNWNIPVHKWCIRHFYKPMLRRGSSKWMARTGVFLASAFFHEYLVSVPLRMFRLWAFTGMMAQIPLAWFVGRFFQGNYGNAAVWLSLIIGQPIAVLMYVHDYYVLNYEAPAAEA
Type: biochemical
Outline: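 Compounds tested in duplicate at 10, 5 and 1 μM for 10 min at 37 °C. Reaction: Sf9-expressed hDGAT1 microsomes (2.5–10 μg), [14C]oleoyl-CoA plus 409.5–1638 μM dioleoylglycerol, pH 7.4 Tris-HCl with fatty-acid-free BSA. Radiolabelled triglyceride extracted into heptane and scintillation-counted.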

| SMILES | inhibition at 10 µM | % inhibition of hDGAT1 |
| --- | --- | --- |
| COC(=O)C1(NC(=O)c2cc(-c3ccc(Nc4nc5ccc(F)cc5s4)cc3)no2)CCCC1 [Example 62, 1-({3-[4-(6-fluoro-benzothiazol-2-ylamino)-phenyl]-isoxazole-5-carbonyl}-amino)-cyclopentanecarboxylic acid methyl ester] | 0 to 50% | – |
| O=C(O)C1(NC(=S)c2cc(-c3ccc(Nc4nc5ccc(F)cc5s4)cc3)no2)CCCC1 [Example 65, 1-({3-[4-(6-Fluoro-benzothiazol-2-ylamino)-phenyl]-isoxazole-5-carbothioyl}-amino)-cyclopentanecarboxylic acid] | 0 to 50% | – |
| O=C(O)C1(NC(=NO)c2cc(-c3ccc(Nc4nc5ccc(F)cc5s4)cc3)no2)CCCC1 [Example 66, 1-({3-[4-(6-Fluoro-benzothiazol-2-ylamino)-phenyl]-N-hydroxy-isoxazole-5-carboximidoyl}-amino)-cyclopentanecarboxylic acid] | 0 to 50% | – |
| CC(C)[C@H](NC(=O)c1c(-c2ccc(Nc3nc4ccc(F)cc4s3)cc2)noc1-c1ccccc1)C(=O)O [Example 69, (S)-2-({3-[4-(6-Fluoro-benzothiazol-2-ylamino)-phenyl]-5-phenyl-isoxazole-4-carbonyl}-amino)-3-methyl-butyric acid] | 0 to 50% | – |
| COC[C@H](NC(=O)c1c(-c2ccc(Nc3nc4ccc(F)cc4s3)cc2)noc1-c1ccccc1)C(=O)OC [Example 70, (S)-2-({3-[4-(6-Fluoro-benzothiazol-2-ylamino)-phenyl]-5-phenyl-isoxazole-4-carbonyl}-amino)-3-methoxy-propionic acid methyl ester] | 0 to 50% | – |
| COC(=O)[C@@H](NC(=S)c1c(-c2ccc(Nc3nc4ccc(F)cc4s3)cc2)noc1-c1ccccc1)C(C)C [Example 72, (S)-2-({3-[4-(6-Fluoro-benzothiazol-2-ylamino)-phenyl]-5-phenyl-isoxazole-4-carbothioyl}-amino)-3-methyl-butyric acid methyl ester] | 0 to 50% | – |
| COC(=O)[C@@H](NC(=O)c1cc(-c2ccc(NC(=O)Nc3ccccc3)cc2)no1)C(C)C [Example 76, (S)-3-Methyl-2-({3-[4-(3-phenyl-ureido)-phenyl]-isoxazole-5-carbonyl}-amino)-butyric acid methyl ester] | 50 to 75% | – |
| CCC(C)[C@H](NC(=O)c1cc(-c2ccc(NC(=O)Nc3ccccc3)cc2)no1)C(=O)OC (stereo partly drawn) [Example 78, (S)-3-Methyl-2-({3-[4-(3-phenyl-ureido)-phenyl]-isoxazole-5-carbonyl}-amino)-pentanoic acid methyl ester] | 0 to 50% | – |
| CC(C)[C@H](NC(=O)c1cc(-c2ccc(NC(=O)NC3CCCCC3)cc2)no1)C(=O)O [Example 81, (S)-2-({3-[4-(3-cyclohexyl-ureido)-phenyl]-isoxazole-5-carbonyl}-amino)-3-methyl-butyric acid] | 75 to 100% | – |
| COC(=O)[C@@H](NC(=O)c1cc(-c2ccc(NC(=O)Nc3ccc(F)cc3)cc2)no1)C(C)C [Example 84, (S)-2-[(3-{4-[3-(4-Fluoro-phenyl}-ureido]-phenyl)-isoxazole-5-carbonyl)-amino]-3-methyl-butyric acid methyl ester] | 50 to 75% | – |
| COC(=O)[C@H](CC(C)C)NC(=O)c1cc(-c2ccc(NC(=O)Nc3ccc(F)cc3)cc2)no1 [Example 86, (S)-2-[(3-{4-[3-(4-Fluoro-phenyl)-ureido]-phenyl}-isoxazole-5-carbonyl)-amino]-4-methyl-pentanoic acid methyl ester] | 0 to 50% | – |
| CC(C)C[C@H](NC(=O)c1cc(-c2ccc(NC(=O)Nc3ccc(F)cc3)cc2)no1)C(=O)O [Example 87, (S)-2-[(3-{4-[3-(4-Fluoro-phenyl)-ureido]-phenyl}-isoxazole-5-carbonyl)-amino]-4-methyl-pentanoic acid] | 75 to 100% | – |
| COC(=O)[C@@H](NC(=O)c1onc(-c2ccc(NC(=O)Nc3ccccc3)cc2)c1-c1ccccc1)C(C)C [Example 88, (S)-3-Methyl-2-({4-phenyl-3-[4-(3-phenyl-ureido)-phenyl]-isoxazole-5-carbonyl}-amino)-butyric acid methyl ester] | 0 to 50% | – |

Now from value to compound:

| inhibition at 10 µM | % inhibition of hDGAT1 | SMILES |
| --- | --- | --- |
| 0 to 50% | – | O=C(NC1(C(=O)O)CCCC1)c1cc(-c2ccc(Nc3nc4ccc(F)cc4s3)cc2)no1 [Example 63, 1-({3-[4-(6-Fluoro-benzothiazol-2-ylamino)-phenyl]-isoxazole-5-carbonyl}-amino)-cyclopentanecarboxylic acid] |
| 0 to 50% | – | COC(=O)[C@@H](NC(=O)c1c(-c2ccc(Nc3nc4ccc(F)cc4s3)cc2)noc1-c1ccccc1)C(C)C [Example 68, (S)-2-({3-[4-(6-Fluoro-benzothiazol-2-ylamino)-phenyl]-5-phenyl-isoxazole-4-carbonyl}-amino)-3-methyl-butyric acid methyl ester] |
| 0 to 50% | – | COC[C@H](NC(=S)c1c(-c2ccc(Nc3nc4ccc(F)cc4s3)cc2)noc1-c1ccccc1)C(=O)OC [Example 74, (S)-2-({3-[4-(6-Fluoro-benzothiazol-2-ylamino)-phenyl]-5-phenyl-isoxazole-4-carbothioyl}-amino)-3-methoxy-propionic acid methyl ester] |
| 75 to 100% | – | CC(C)[C@H](NC(=O)c1cc(-c2ccc(NC(=O)Nc3ccccc3)cc2)no1)C(=O)O [Example 77, (S)-3-Methyl-2-({3-[4-(3-phenyl-ureido)-phenyl]-isoxazole-5-carbonyl}-amino)-butyric acid] |
| 75 to 100% | – | CCC(C)[C@H](NC(=O)c1cc(-c2ccc(NC(=O)Nc3ccccc3)cc2)no1)C(=O)O (stereo partly drawn) [Example 79, (S)-3-Methyl-2-({3-[4-(3-phenyl-ureido)-phenyl]-isoxazole-5-carbonyl}-amino)-pentanoic acid] |
| – | ++ (>50% Inhibition ≦75) | COC(=O)[C@@H](NC(=O)c1cc(-c2ccc(NC(=O)NC3CCCCC3)cc2)no1)C(C)C [Example 80, (S)-2-(S)-2-({3-[4-(3-cyclohexyl-ureido)-phenyl]-isoxazole-5-carbonyl}-amino)-3-methyl-butyric acid methyl ester] |
| 0 to 50% | – | COC(=O)[C@H](CC(C)C)NC(=O)c1cc(-c2ccc(NC(=O)NC3CCCCC3)cc2)no1 [Example 82, (S)-2-({3-[4-(3-cyclohexyl-ureido)-phenyl]-isoxazole-5-carbonyl}-amino)-4-methyl-pentanoic acid methyl ester] |
| 50 to 75% | – | CC(C)C[C@H](NC(=O)c1cc(-c2ccc(NC(=O)NC3CCCCC3)cc2)no1)C(=O)O [Example 83, (S)-2-({3-[4-(3-cyclohexyl-ureido)-phenyl]-isoxazole-5-carbonyl}-amino)-4-methyl-pentanoic acid] |
| 75 to 100% | – | CC(C)[C@H](NC(=O)c1cc(-c2ccc(NC(=O)Nc3ccc(F)cc3)cc2)no1)C(=O)O [Example 85, (S)-2-[(3-{4-[3-(4-Fluoro-phenyl)-ureido]-phenyl}-isoxazole-5-carbonyl)-amino]-3-methyl-butyric acid] |
| 0 to 50% | – | CC(C)[C@H](NC(=O)c1onc(-c2ccc(NC(=O)Nc3ccccc3)cc2)c1-c1ccccc1)C(=O)O [Example 89, (S)-3-Methyl-2-({4-phenyl-3-[4-(3-phenyl-ureido)-phenyl]-isoxazole-5-carbonyl}-amino)-butyric acid] |
